Columns and labels:
[1] = system: alcohol self-administration; assay: Operant alcohol self-administration in ethanol dependent and non-dependent rats; assay type: in vivo, Wistar rats
Protocol: Alcohol self-administration in ethanol dependent and non-dependent animals is a well-known and well-characterized animal model for analysis of alcoholism behaviors (Roberts et al. 1999, 2000; Rimondini et al. 2002; O'Dell et al. 2004; Richardson et al. 2008; Gilpin et al. 2009).
Adult male Wistar rats (Charles River, Raleigh, N.C.), weighing 225-275 g at the beginning of the experiments, were housed in groups of 2-3 per cage in a temperature-controlled (22° C.) vivarium on a 12 h/12 h light/dark cycle (lights on at 8:00 PM) with ad libitum access to food and water. All behavioral tests were conducted during the dark phase of the light/dark cycle. All procedures adhered to the National Institutes of Health Guide for the Care and Use of Laboratory Animals and were approved by the Institutional Animal Care and Use Committee of The Scripps Research Institute.
Self-administration sessions were conducted in standard operant conditioning chambers (Med Associates, St. Albans, Vt.). Animals were first trained to self-administer 10% (w/v) ethanol and water solutions until a stable response was maintained. The rats were subjected to an overnight session in the operant chambers with access to one lever (right lever) that delivered water (FR1). Food was available ad libitum during this training. After 1 day off, the rats were subjected to a 2 h session (FR1) for 1 day and a 1 h session (FR1) the next day, with one lever delivering alcohol (right lever). All of the subsequent sessions lasted 30 min, and two levers were available (left lever: water; right lever: alcohol) until stable levels of intake were reached. Upon completion of this procedure, the animals were allowed to self-administer a 10% (w/v) alcohol solution and water on an FR1 schedule of reinforcement (i.e., each operant response was reinforced with 0.1 ml of the solution).
Once a stable baseline of alcohol self-administration was reached, the rats were made dependent by chronic, intermittent exposure to alcohol vapors. […]
Data were analyzed by appropriate mixed factorial ANOVA, followed Newman Keuls post hoc tests

[2] = target: Noradrenergic Transporter (Homo sapiens, UniProt P23975); assay: CNS receptor binding assay; details: [3H] nisoxetine, Human recombinant (CHO cells), read-out: % Inhibition of control specific binding
Dopaminergic D1 = Dopaminergic D1 (Homo sapiens, UniProt P21728); assay: CNS receptor binding assay; details: read-out: % Inhibition of control specific binding
Serotoninergic 5-HT7 = Serotoninergic 5-HT7 (Homo sapiens, UniProt P34969); assay: CNS receptor binding assay; details: read-out: % Inhibition of control specific binding
Dopaminergic D3 = Dopaminergic D3 (Homo sapiens, UniProt P35462); assay: CNS receptor binding assay; details: read-out: % Inhibition of control specific binding
Cannabinoid CB1 = Cannabinoid CB1 (Homo sapiens, UniProt P21554); assay: CNS receptor binding assay; details: [3H] CP55940, Human recombinant (CHO cells), read-out: % Inhibition of control specific binding
Noradrenergic β1 = Noradrenergic β1 (Homo sapiens, UniProt P08588); assay: CNS receptor binding assay; details: read-out: % Inhibition of control specific binding
Oppioid δ2 = Oppioid δ2 (Homo sapiens, UniProt P41143); assay: CNS receptor binding assay; details: [3H] DADLE, Human recombinant (CHO cells), read-out: % Inhibition of control specific binding
Noradrenergic α1 = assay: CNS receptor binding assay; details: 10 μM; [3H] prazosin; rat cerebral cortex
[3] = target: Muscarinic (Cholinergic) M2 (Homo sapiens, UniProt P08172); assay: CNS receptor binding assay; details: [3H] AF-DX 384, Human recombinant (CHO cells), read-out: % Inhibition of control specific binding
Androgen Receptor (AR) = Androgen Receptor (AR) (Rattus norvegicus, UniProt P15207); assay: Radioligand binding assay, steroid hormone receptors; details: 1.5 nM [3H] Mibolerone, Rat recombinant E. coli, read-out: % inhibition of specific binding
Protocol: Binding affinity of 3β-methoxy-PREG (MAP4343) for receptors of steroid hormones was evaluated using radioligand binding assays.

Sequence of Dopaminergic D1 (P21728 whole entry): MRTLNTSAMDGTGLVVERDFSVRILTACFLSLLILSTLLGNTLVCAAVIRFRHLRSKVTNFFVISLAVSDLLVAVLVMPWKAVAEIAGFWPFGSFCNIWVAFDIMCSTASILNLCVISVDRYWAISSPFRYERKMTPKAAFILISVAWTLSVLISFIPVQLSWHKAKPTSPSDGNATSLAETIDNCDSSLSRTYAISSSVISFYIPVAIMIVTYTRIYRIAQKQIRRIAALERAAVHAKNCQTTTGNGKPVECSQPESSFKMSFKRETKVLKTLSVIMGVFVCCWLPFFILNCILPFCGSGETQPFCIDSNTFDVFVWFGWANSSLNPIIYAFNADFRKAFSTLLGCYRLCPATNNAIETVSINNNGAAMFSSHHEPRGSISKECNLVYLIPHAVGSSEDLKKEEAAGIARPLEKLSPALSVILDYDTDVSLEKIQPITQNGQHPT
Sequence of Oppioid δ2 (P41143 whole entry): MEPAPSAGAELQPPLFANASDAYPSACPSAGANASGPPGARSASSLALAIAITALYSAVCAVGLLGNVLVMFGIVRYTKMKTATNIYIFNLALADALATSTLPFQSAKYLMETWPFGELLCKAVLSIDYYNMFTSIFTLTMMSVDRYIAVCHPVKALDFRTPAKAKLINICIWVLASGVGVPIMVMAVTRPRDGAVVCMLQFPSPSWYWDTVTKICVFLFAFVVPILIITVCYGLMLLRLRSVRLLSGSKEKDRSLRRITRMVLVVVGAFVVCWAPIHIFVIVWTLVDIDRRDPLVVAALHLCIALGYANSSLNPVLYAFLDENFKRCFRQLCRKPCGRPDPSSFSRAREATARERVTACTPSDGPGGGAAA
Sequence of Noradrenergic Transporter (P23975 whole entry): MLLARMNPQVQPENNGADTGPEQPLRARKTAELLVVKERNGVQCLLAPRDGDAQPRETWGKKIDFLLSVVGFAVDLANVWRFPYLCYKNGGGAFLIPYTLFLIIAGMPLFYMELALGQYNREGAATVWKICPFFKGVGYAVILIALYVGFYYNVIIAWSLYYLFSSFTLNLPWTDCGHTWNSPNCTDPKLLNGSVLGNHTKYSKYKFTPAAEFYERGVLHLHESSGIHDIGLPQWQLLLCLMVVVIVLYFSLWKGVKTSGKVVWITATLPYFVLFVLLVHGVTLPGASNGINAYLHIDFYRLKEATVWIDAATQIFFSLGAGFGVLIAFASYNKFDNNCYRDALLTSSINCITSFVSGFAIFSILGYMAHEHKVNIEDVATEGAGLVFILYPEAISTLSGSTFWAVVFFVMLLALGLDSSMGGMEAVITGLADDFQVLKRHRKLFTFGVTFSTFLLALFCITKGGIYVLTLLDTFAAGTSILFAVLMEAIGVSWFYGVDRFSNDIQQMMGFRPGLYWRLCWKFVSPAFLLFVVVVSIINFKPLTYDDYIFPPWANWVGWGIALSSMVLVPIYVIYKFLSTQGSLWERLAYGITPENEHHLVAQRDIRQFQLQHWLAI
Sequence of Androgen Receptor (AR) (P15207 whole entry S389L): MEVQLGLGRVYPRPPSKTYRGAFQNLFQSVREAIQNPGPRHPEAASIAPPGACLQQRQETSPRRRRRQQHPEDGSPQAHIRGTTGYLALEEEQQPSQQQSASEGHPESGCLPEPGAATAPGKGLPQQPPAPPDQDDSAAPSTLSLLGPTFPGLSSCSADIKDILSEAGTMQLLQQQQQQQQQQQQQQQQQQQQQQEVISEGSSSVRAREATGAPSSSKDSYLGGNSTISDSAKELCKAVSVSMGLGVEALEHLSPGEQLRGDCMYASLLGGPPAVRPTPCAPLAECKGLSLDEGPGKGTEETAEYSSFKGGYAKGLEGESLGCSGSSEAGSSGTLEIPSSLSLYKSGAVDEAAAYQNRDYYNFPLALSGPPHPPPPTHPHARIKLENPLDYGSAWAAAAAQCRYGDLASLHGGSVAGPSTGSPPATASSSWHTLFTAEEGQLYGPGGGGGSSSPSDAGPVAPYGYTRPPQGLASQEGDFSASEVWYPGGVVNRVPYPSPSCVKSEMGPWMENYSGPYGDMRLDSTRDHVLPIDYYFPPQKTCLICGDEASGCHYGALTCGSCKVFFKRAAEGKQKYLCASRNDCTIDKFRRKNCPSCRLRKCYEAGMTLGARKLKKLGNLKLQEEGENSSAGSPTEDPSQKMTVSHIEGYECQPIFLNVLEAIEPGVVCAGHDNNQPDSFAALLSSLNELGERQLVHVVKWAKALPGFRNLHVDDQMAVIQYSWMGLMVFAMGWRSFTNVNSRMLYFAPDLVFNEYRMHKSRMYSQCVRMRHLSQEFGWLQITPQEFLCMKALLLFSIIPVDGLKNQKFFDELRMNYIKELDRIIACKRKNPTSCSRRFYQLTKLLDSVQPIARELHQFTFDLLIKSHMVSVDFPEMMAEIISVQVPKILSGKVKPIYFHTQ
Sequence of Cannabinoid CB1 (P21554 whole entry): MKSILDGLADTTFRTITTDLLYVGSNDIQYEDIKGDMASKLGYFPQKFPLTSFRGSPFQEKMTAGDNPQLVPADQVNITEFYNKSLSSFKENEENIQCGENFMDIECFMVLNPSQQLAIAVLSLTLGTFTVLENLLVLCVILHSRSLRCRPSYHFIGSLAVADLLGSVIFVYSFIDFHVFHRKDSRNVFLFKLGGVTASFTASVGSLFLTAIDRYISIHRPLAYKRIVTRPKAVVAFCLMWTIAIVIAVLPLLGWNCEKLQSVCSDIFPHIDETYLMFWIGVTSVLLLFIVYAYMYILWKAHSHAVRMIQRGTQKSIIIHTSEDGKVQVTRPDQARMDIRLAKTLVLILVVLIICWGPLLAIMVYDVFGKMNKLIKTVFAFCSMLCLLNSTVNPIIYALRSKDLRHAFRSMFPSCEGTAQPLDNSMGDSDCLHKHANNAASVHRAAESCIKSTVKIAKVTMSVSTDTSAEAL
Sequence of Muscarinic (Cholinergic) M2 (P08172 whole entry): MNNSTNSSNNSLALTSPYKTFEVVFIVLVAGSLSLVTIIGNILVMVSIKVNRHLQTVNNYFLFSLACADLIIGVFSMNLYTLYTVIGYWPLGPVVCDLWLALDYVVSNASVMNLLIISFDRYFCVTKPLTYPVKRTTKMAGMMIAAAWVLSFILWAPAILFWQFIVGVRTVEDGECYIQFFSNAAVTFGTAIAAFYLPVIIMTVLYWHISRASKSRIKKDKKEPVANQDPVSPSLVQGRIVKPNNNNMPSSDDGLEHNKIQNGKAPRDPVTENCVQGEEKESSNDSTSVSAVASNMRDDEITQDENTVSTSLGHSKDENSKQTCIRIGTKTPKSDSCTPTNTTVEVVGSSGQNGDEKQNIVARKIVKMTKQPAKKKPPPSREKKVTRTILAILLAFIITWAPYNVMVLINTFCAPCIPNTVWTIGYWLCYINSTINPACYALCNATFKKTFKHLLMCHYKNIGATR
Sequence of Serotoninergic 5-HT7 (P34969 whole entry): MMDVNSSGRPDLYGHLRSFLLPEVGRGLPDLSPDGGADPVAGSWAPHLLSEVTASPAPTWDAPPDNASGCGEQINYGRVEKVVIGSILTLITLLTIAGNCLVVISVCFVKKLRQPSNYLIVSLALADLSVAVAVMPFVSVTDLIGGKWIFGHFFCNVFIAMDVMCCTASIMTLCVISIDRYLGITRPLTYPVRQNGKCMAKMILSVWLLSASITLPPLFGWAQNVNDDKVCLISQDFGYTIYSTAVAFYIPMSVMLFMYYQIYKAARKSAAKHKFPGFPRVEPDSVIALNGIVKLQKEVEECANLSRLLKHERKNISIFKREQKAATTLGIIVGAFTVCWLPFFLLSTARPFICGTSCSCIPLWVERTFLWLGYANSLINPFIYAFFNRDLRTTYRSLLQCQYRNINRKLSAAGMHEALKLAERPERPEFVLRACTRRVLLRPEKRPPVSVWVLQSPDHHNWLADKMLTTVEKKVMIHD
Sequence of Noradrenergic β1 (P08588 whole entry): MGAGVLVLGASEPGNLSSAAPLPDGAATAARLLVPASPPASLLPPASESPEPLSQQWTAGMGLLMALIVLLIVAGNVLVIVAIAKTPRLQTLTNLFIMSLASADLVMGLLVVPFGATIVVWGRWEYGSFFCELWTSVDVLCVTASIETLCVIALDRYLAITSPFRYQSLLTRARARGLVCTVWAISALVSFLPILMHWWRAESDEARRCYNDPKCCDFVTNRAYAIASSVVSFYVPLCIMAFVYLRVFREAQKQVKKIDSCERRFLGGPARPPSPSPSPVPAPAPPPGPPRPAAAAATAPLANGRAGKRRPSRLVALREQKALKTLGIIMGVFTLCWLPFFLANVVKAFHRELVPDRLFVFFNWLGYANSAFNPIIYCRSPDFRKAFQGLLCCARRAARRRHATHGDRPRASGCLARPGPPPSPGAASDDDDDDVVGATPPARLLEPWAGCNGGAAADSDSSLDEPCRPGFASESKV
Sequence of Dopaminergic D3 (P35462 whole entry): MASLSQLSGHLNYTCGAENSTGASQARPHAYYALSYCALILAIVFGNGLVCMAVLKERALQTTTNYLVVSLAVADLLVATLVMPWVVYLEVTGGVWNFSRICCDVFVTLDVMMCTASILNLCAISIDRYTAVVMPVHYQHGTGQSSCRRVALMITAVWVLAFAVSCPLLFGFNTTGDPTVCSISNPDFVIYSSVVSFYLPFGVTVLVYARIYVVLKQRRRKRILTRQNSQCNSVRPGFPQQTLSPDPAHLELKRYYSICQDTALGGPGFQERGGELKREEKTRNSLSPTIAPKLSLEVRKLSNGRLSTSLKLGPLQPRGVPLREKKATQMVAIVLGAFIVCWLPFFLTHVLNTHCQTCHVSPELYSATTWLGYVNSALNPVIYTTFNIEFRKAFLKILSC

CO[C@H]1CC[C@@]2(C)C(=CC[C@H]3[C@@H]4CC[C@H](C(C)=O)[C@@]4(C)CC[C@@H]32)C1 [MAP4343, 3β-methoxy-pregna-5-ene-20-one]
operant responding for alcohol (alcohol reinforced responses) ([1]; dependent (vapor) rats, 10 mg/kg sub-cutaneously in sesame oil 24 hours before each test session, p<0.05 from test session 8): significantly reduce operant responding for alcohol selectively in the dependent animals
time of treatment until efficacy was apparent ([1]; dependent rats, 10 mg/kg sub-cutaneously): ~10 days
reduction of excessive alcohol drinking ([1]; non-dependent (air) rats, 10 mg/kg sub-cutaneously 24 hours before each test session): not in non-dependent rats
inhibition at 10 µM [2]: 3%
inhibition at 10 µM (Dopaminergic D1): 2%
inhibition at 10 µM (Serotoninergic 5-HT7): -11%
inhibition at 10 µM (Dopaminergic D3): 8%
inhibition at 10 µM (Cannabinoid CB1): 12%
inhibition at 10 µM (Noradrenergic β1): 1%
inhibition at 10 µM (Oppioid δ2): -3%
% Inhibition of control specific binding (Noradrenergic α1): 4%
inhibition at 10 µM [3]: 20%
inhibition at 10 µM (Androgen Receptor (AR)): < 25%

— patent US20210322443A1 (MAPREG, priority 2015, published 2021)
